Tested on: anti-C-myc peptide monoclonal antibody 9E10
Test: bead staining test for binding to anti-C-myc monoclonal antibody 9E10
Conditions: bead-bound peptides of the 117,649 peptide library; 1:200 dilution of 9E10 ascites fluid; alkaline phosphatase-coupled goat antimouse IgG colour detection; sequence read from tags
Description: The anti-C-myc peptide monoclonal antibody 9E10 was prepared from ascites fluid as described in Evans et al., Mol. Cell Biol., 5, 3610-3616 (1985) and Munro and Pelham, Cell, 48, 899-907 (1987). To test beads for binding to 9E10, beads were incubated in TBST [20 mM Tris-HCl (pH 7.5), 500 mM NaCl and 0.05% Tween-20] containing 1% bovine serum albumin (BSA) to block non-specific protein binding sites. The beads were then centrifuged, resuspended in a 1:200 dilution of 9E10 ascites fluid in TBST+1% BSA and incubated overnight at 4° C. Beads were subsequently washed three times in TBST and incubated for 90 min. at room temperature in alkaline phosphatase-coupled goat antimouse IgG antibodies (Bio-Rad Laboratories), diluted 1:3000 in TBST+1% BSA. After washing the beads twice in TBST and once in phosphatase buffer (100 mM Tris-HCl, pH 9.5, 100 mM NaCl and 5 mM MgCl2), the beads were incubated 1 hr at room temperature in phosphatase buffer containing one one-hundredth part each of AP Color Reagents A & B (Bio-Rad Laboratories). To stop the reaction, the beads were washed twice in 20 mM sodium EDTA, pH 7.4. Solution phase affinities between 9E10 and various peptides were determined by a modification of the competitive ELISA assay described by Harlow et al., Antibodies: a Laboratory Manual, 570-573, Cold Spring Harbor Press, Cold Spring Harbor, N.Y.

With EQKLISEEDL the “beads stained on exposure to the anti-C-myc monoclonal antibody” value was “stained”.
